Laboratory results taken from patent publication EP2077260B1, “AMIDE COMPOUND OR SALT THEREOF, AND BIOFILM FORMATION INHIBITOR, BIOFILM REMOVER AND BACTERICIDE EACH USING THE AMIDE COMPOUND OR SALT THEREOF” (The University of Tokyo, priority 2006, dated 2008).
Converted amounts (≈) assume the structure as drawn. Like-named read-outs stand apart in the source and are kept apart here.

How the values were obtained:
[1] = test system: Escherichia coli ATCC 25922; assay: Evaluation test for disinfecting effect, broth dilution method CLSI(M7-A7)2006; format: cell-based; settings: 37°C, 18 hours
From the text: (§1) The following test compounds were examined for the disinfecting activities against Pseudomonas aeruginosa, E.. Coli and staphylococcus aureus, according to a broth dilution method of "CLSI(M7-A7)2006" (Clinical and Laboratory Standards Institute, M7-A7, Methods for Dilution Antimicrobial Susceptibility Tests for Bacteria That Grow Aerobically; Approved Standard-Seventh Edition, 2006),
(§2) • Pseudomonas aeruginosa PAO1 • Pseudomonas aeruginosa ATCC 27853 • Escherichia coli ATCC 25922 • Staphylococcus aureus ATCC 29213 • Staphylococcus aureus Methicillin resistant (MRSA) ATCC 43300
(§3) Each of above-mentioned bacteria was inoculated in a TSB culture medium (Bacto TSB Broth, product of BD) for overnight cultivation at 37°C. The culture solution was applied to a TSB agar plate for about a 20-hour cultivation to form colonies. Three to five colonies were taken from the agar plate, and an average colony of them was inoculated in a 4mL TSB culture medium.. The colony was cultivated at 35°C until the number of microorganisms became 1 × 10^8 to 2 x 10^8 CFU/mL. The number of microorganisms with time was found by measuring changes in absorbency at 590nm of culture solution with time. When the turbidity became equivalent to 0.5 McFarland standard, it was determined that the number of microorganisms reached the target level = 1 × 10^8 to 2 × 10^8 CFU/mL.
(§4) The bacillus culture solution thus obtained was diluted 10-fold within 15 minutes, and a 5µL portion was inoculated in each well of an evaluation 96-well microplate. This 96-well microplate was a sterilized 96-well microplate with U-shaped bottoms (Falcon 35-3918: product of BD), and each well was filled with a 100µL portion of MH culture medium (BBL MH Broth: product of BD). Within 15 minutes after inoculation of the bacillus culture solutions, the test compounds were supplied to the well in a manner of 2-fold graded dilution. The cultivation was then carried out at 37°C for 18 hours.
(§5) The MIC was determined as follows. "S (susceptible)" indicates a concentration which caused 80% or more reduction in the diameter of the aggregation deposited in the bottom of the well, compared to when the test liquid is not used. "R (Resistant)" indicates a concentration that caused less than 80% reduction in diameter. The reduction was measured visually.. "I(Intermediate)" indicates a concentration that cannot be measured visually

[2] = test system: Pseudomonas aeruginosa ATCC 27853; assay: as above; format: cell-based; settings: 37°C, 18 hours
From the text: as §1, §2, §3, §4, §5

[3] = test system: Staphylococcus aureus ATCC 29213; assay: as above; format: cell-based; settings: 37°C, 18 hours
From the text: as §1, §2, §3, §4, §5

[4] = test system: Pseudomonas aeruginosa PAO1; assay: as above; format: cell-based; settings: 37°C, 18 hours
From the text: as §1, §2, §3, §4, §5

[5] = test system: Staphylococcus aureus Methicillin resistant (MRSA) ATCC 43300; assay: as above; format: cell-based; settings: 37°C, 18 hours
From the text: as §1, §2, §3, §4, §5

[6] = test system: Pseudomonas aeruginosa ATCC 27853; settings: Publicly-known data, CLSI(M100-S16)2006 liquid dilution method; cited from earlier work
[7] = test system: Escherichia coli ATCC 25922; settings: Publicly-known data, CLSI(M100-S16)2006 liquid dilution method; cited from earlier work
[8] = test system: Staphylococcus aureus ATCC 29213; settings: Publicly-known data, CLSI(M100-S16)2006 liquid dilution method; cited from earlier work
[9] = test system: Pseudomonas aeruginosa (gfp expression PAO1-strain); assay: Evaluation test for biofilm formation inhibition effect against Pseudomonas aeruginosa (flow cell system, fluorescence confocal microscope); format: cell-based; settings: test liquid 100µM; observed up to 84 hours; compared with control test liquid (huge, thick biofilm)
Procedure: With the flow cell system shown in FIG. 1, an inhibitory effect against biofilm formation by Pseudomonas aeruginosa was evaluated for each of the amide compounds produced in Production Examples 1, 3, 5, 6 and 7 (Compounds 1a-1, 1b-1, 1c-1, 1c-2, 1d-1), and for each of Comparative Compounds (Comparative Example) 1 to 3 denoted by the following formulas. [drawing 20] [drawing 21] [drawing 22]
A culture medium bottle (1), a peristaltic pump (2), a glass cell (4) and a waste fluid bottle (5) are connected via a silicon tube (6) so that a culture medium (9) is supplied to the glass cell (4) from the culture medium bottle (1) using the peristaltic pump (2). The system includes an air removal section (3) between the peristaltic pump (2) and a turncock (7a), for removing the entrained air. All instruments in the flow cell system are sterilized using gamma-rays or an autoclave.
As specifically described later, the inhibitory effect against biofilm formation of each of the amide compounds is examined in the following manner.. Bacteria are cultured in a glass cell (4) to grow a biofilm on the inner wall of the cell, and a test liquid containing one of the amide compounds is applied to the biofilm. Then the state of the biofilm is observed to evaluate the inhibitory effect against biofilm formation of the compound using a fluorescence confocal microscope (Leica TCS SP2: product of Leica). […]

[10] = test system: Porphyromonas gingivalis 381-strain (clinical strain); assay: Evaluation test for biofilm formation inhibition effect against periodontitis pathogenic bacteria (flow cell system, HA disks, turbidity); format: cell-based; settings: Porphyromonas gingivalis, 336 h; 100µM; 14 days; relative to control test liquid (Mean Comparison OD Value); read-out: Biofilm Formation Inhibition Rate(%)
Procedure: As with Experiment Example 1, using the flow cell system of FIG. 1, an inhibitory effect against biofilm formation by periodontitis pathogenic bacteria was evaluated for each of the amide compounds produced in Production Examples 1, 3, 5, and 6 (Compounds 1a-1, 1b-1, 1c-1, 1c-2).
Periodontitis pathogenic bacteria Porphyromonas gingivalis 381-strain (clinical strain) was used..
A GAM culture medium containing hemin 5µg/L and menadione 1µg/L was used.
The 381-strain was inoculated in the GAM culture medium, and cultivated until stationary phase (OD550=1.8). Then the culture medium was diluted 20-fold by a fresh GAM culture medium containing the above-mentioned substances.
The test liquid was prepared by dissolving 100µM of each of the Compounds 1a-1, 1b-1, 1c-1, or 1c-2 according to Production Examples 1, 3, 5 and 6 and 100µM of Comparative Compounds 1 and 2 as comparative examples in dimethyl sulfoxide (DMSO), and supplying the resulting DMSO solutions to the above-mentioned bacterial suspensions so that the concentration of each compound becomes 0.1%(v/v).
A DMSO not containing the compound was used as a control test liquid.
The glass cell (4) of the flow cell system (see FIG. 1) was replaced with a stainless cell (3 x 7 x 120mm), and 10 hydroxyapatite (HA) disks (6mm in diameter, 1mm in thickness) were placed in the cell. The HA disks had been subjected to salivary treatment overnight. Each of the test liquids and control test liquids was circulated in the system at a flow rate of 8mL/min for 14 days, Note that the test liquids and the control test liquids were replaced with fresh liquids every two days.
After the cultivation, the HA disks were dipped in 300µL of sterile distilled water, and treated by supersonic wave for 30 minutes at 4°C, The biofilms formed in the HA disks were peeled off and suspended in distilled water. Then, 100µL of the suspension liquid was measured for the turbidity with an absorptiometer (C07500 colorimeter, product of Funakoshi) (measurement wavelength = 550 nm).
A mean OD was found based on the resulting OD values, excluding the minimum and maximum values, Also, a mean value of the turbidities for the Control Test Liquids was found in the same manner as the control mean OD value. A biofilm formation inhibition rate (Inhibition Rate) was found by the following formula. Biofilm Formation Inhibition Rate (%) = […] [formula]

[11] = ATCC25922, I (Intermediate): concentration that cannot be measured visually, read-out: MIC (µg/mL) I
[12] = ATCC25922, R (Resistant): concentration that caused less than 80% reduction in diameter of the aggregation, read-out: MIC (µg/mL) R
[13] = ATCC25922, S (susceptible): concentration which caused 80% or more reduction in diameter of the aggregation, read-out: MIC (µg/mL) S
[14] = ATCC27853, I (Intermediate): concentration that cannot be measured visually, read-out: MIC (µg/mL) I
[15] = ATCC27853, R (Resistant): concentration that caused less than 80% reduction in diameter of the aggregation, read-out: MIC (µg/mL) R
[16] = ATCC27853, S (susceptible): concentration which caused 80% or more reduction in diameter of the aggregation, read-out: MIC (µg/mL) S
[17] = ATCC29213, I (Intermediate): concentration that cannot be measured visually, read-out: MIC (µg/mL) I
[18] = ATCC29213, R (Resistant): concentration that caused less than 80% reduction in diameter of the aggregation, read-out: MIC (µg/mL) R
[19] = ATCC29213, S (susceptible): concentration which caused 80% or more reduction in diameter of the aggregation, read-out: MIC (µg/mL) S
[20] = PAO1, I (Intermediate): concentration that cannot be measured visually, read-out: MIC (µg/mL) I
[21] = PAO1, R (Resistant): concentration that caused less than 80% reduction in diameter of the aggregation, read-out: MIC (µg/mL) R
[22] = PAO1, S (susceptible): concentration which caused 80% or more reduction in diameter of the aggregation, read-out: MIC (µg/mL) S
[23] = I (Intermediate): concentration that cannot be measured visually, read-out: MIC (µg/mL) I
[24] = R (Resistant): concentration that caused less than 80% reduction in diameter of the aggregation, read-out: MIC (µg/mL) R
[25] = S (susceptible): concentration which caused 80% or more reduction in diameter of the aggregation, read-out: MIC (µg/mL) S

## CC(C)(O/N=C(\C(=O)N[C@@H]1C(=O)N2C(C(=O)[O-])=C(C[n+]3ccccc3)CS[C@H]12)c1csc(N)n1)C(=O)O [CAZ, Ceftazidime]
[1]; [11]
  MIC: 0.125 µg/mL (≈ 0.229 µM)
[1]; [12]
  MIC: ≤ 0.063 µg/mL
[1]; [13]
  MIC: ≥ 0.25 µg/mL
[2]; [14]
  MIC: 2 µg/mL (≈ 3.66 µM)
[2]; [15]
  MIC: ≤ 1 µg/mL
[2]; [16]
  MIC: ≥ 4 µg/mL
[3]; [17]
  MIC: 4 µg/mL (≈ 7.32 µM)
[3]; [18]
  MIC: ≤ 2 µg/mL
[3]; [19]
  MIC: ≥ 8 µg/mL
[4]; [20]
  MIC: 1 µg/mL (≈ 1.83 µM)
[4]; [21]
  MIC: ≤ 0.5 µg/mL
[4]; [22]
  MIC: ≥ 2 µg/mL
[5]; [23]
  MIC: 8 µg/mL (≈ 14.6 µM)
[5]; [24]
  MIC: ≤ 4 µg/mL
[5]; [25]
  MIC: ≥ 16 µg/mL
[6]
  MIC (µg/mL) from M100-S16: 1 to 4 µg/mL
[7]
  MIC (µg/mL) from M100-S16: 0.06 to 0.5 µg/mL
[8]
  MIC (µg/mL) from M100-S16: 4 to 16 µg/mL

## CCCCCCCCCC(=O)CC(=O)Nc1ccccc1O [Comparative Compound 1]
[9]
  state of biofilm formation: the huge, thick biofilm was observed as in the control test
[10]
  inhibition at 100 µM: -36%

## CCCCCCCCCCCC(=O)NN1CCCCC1 [Compound 1d-1, N-(piperidin-1-yl) dodecanoyl amide]
[9]
  state of biofilm formation: such biofilm formation was not observed

## NC[C@H]1O[C@H](O[C@H]2[C@H](O)[C@@H](O[C@H]3O[C@H](CO)[C@@H](O)[C@H](N)[C@H]3O)[C@H](N)C[C@@H]2N)[C@H](N)C[C@@H]1O [TOB, Tobramycin]
[1]; [11]
  MIC: 0.5 µg/mL (≈ 1.07 µM)
[1]; [12]
  MIC: ≤ 0.25 µg/mL
[1]; [13]
  MIC: ≥ 1 µg/mL
[2]; [14]
  MIC: 0.5 µg/mL (≈ 1.07 µM)
[2]; [15]
  MIC: ≤ 0.25 µg/mL
[2]; [16]
  MIC: ≥ 1 µg/mL
[3]; [17]
  MIC: 0.25 µg/mL (≈ 0.535 µM)
[3]; [18]
  MIC: ≤ 0.125 µg/mL
[3]; [19]
  MIC: ≥ 0.5 µg/mL
[4]; [20]
  MIC: 0.5 µg/mL (≈ 1.07 µM)
[4]; [21]
  MIC: ≤ 0.25 µg/mL
[4]; [22]
  MIC: > 1 µg/mL
[5]; [23]
  MIC: 128 µg/mL (≈ 274 µM)
[5]; [24]
  MIC: ≤ 64 µg/mL
[5]; [25]
  MIC: ≥ 256 µg/mL
[6]
  MIC (µg/mL) from M100-S16: 0.25 to 1 µg/mL
[7]
  MIC (µg/mL) from M100-S16: 0.25 to 1 µg/mL
[8]
  MIC (µg/mL) from M100-S16: 0.12 to 1 µg/mL
